Test results from patent US8377663B2, “Cosmetic composition comprising hydroxymethionine and 3-aminopropanesulfonic acid” (Sederma, S.A.S., priority 2007, dated 2013).
Marks after values point to notes of the source that are not given here. Blank lines part the entries; values can stand above or below the compound they belong to.

Columns and labels:
filaggrin = assay: Filaggrin synthesis by keratinocytes (fluorescence-image analysis); type: cell-based, human; conditions: for Filaggrin synthesis, Fluorescence: Table 3, HaCat; for Filaggrin synthesis, Fluorescence / Filaggrin synthesis, Fluorescence, result per 106 cells: calcium-deficient medium; for Filaggrin synthesis, Fluorescence / Filaggrin synthesis, Fluorescence, result per 106 cells / increase in filaggrin synthesis on the control value: 14 days; for Filaggrin synthesis, Fluorescence, result per 106 cells: Table 2, HaCat
Experimental: HaCat cells were cultured to confluence, in a deficient medium in calcium, in the presence or absence of hydroxymethionine-Ca for 14 days. The culture period was rather long in order to enable the keratinocytes to pursue differentiation up to a rather late stage in order to detect the emergence of filaggrin. Quantification was conducted by fluorescence-image analysis after labeling filaggrin with a specific probe (polyclonal antibody, Santa-Cruz). […]

[1] = test system: Human HaCat keratinocytes; assay: Stimulation of keratinocyte proliferation (Hoescht DNA labeling); type: cell-based; conditions: 14 days; for Keratinocyte proliferation vs. control cell proliferation: n = 3
Experimental: The stimulation of cell growth can be readily measured by uptake of a fluorescent probe that intercalates between DNA bases (Hoescht method). There is a proportional relationship between the quantity of fluorescent DNA taken up and the number of cells. […] Cells and products were incubated during 14 days (37° C./5% CO2), the mediums being renewed at regular intervals. Then lawns were rinsed and broke before being labeled by means of the colouring agent inserting of the DNA HOESCHT 33258. The intensity of the labeling is proportional to the quantity of DNA of the cellular samples. A curve of calibration allows to correlate the intensity of the labeling to the number of cells.

keratin K10 = assay: Synthesis of keratin 10 by keratinocytes (fluorescence image analysis); type: cell-based, human; conditions: 14 days; for Synthesis of keratin 10, Fluorescence: HaCat, calcium-poor medium
Experimental: HaCat cells were cultured in the presence or absence of hydroxymethionine-Ca, 3-aminopropanesulfonic Acid alone, and both compounds in a calcium-poor culture medium for 14 days. The incubation time was rather long to enable the keratinocytes to pursue differentiation up to a late stage, thus enabling detection of the emergence of keratin K10. Quantification was conducted by fluorescence image analysis using 1 specific fluorescent probe (anti-keratin monoclonal antibody (Monosan) for keratin K10).

Keratinocytes = assay: Osmolar protection: cell vitality by MTT after hyperosmotic stress; type: cell-based; conditions: D-Sorbitol 200 mM, 0.06%
Experimental: Keratinocytes were cultured in an appropriate culture medium. Then, cells were exposed to hyperosmolar shock induced by D-Sorbitol 200 mM. […] The osmoprotector effect of the products is estimated by quantifying the cellular survival. MTT Method is used: the measure of the survival is made at T0, T24 h and T48 h after the beginning of the stress. An analysis of the variances is realized on the data. In case of identity of the variances, a test of Student for matched series is then realized on the averages.

[2] = test system: Normal Human Keratinocyte (KHN) cells; assay: Genes expression profile by DNA array on human keratinocyte culture; type: cell-based
Experimental: The genes expression profile modulated by hydroxymethionine was studied on human keratinocyte culture, cultured in the presence or absence of hydroxymethionine-Ca by DNA array studies allowing the detection of the main genes.
Normal Human Keratinocyte (KHN) cells were cultured to confluence before receiving 5×10E-3% hydroxymethionine or 5×10E-2% hydroxymethionine diluted in the culture medium. The negative controls are medium without hydroxymethionine. The KHN were incubated (37° C./5% CO2) at different times before that the culture was stopped to allow the extraction of the total RNA. Then, the quantitation of the mRNA of interest is allowed by the use of ADN biochip and quantified by means of software of interpretations of the fluorescent signals recorded by the sensors.

transglutaminase = assay: Transglutaminase mRNA by quantitative RT-PCR; type: cell-based, human; conditions: 8 days; for Transglutaminase mRNA, Ct, result per 106 cells: HaCat
Experimental: HaCat cells were cultured in the presence or absence of hydroxymethionine-Ca for 8 days. The quantitative RT-PCR method used on the mRNA for transglutaminase is sensitive and yielded results as of 8 days of culture. Quantification consisted in analysis of the cycle threshold (Ct) parameter, which reflects the amplification power used to obtain a detectable signal.
Amplification is exponantial and of order 1.7 (recopying effectiveness for each cycle).

HaCat cells = assay: Intracellular lipid synthesis (red oil staining of lipid vesicles); type: cell-based, human; conditions: 14 days; for Formation of lipid vesicles, Red-oil staining, result per 106 cells: HaCat
Experimental: The intracellular lipid vesicles characterize a late phase of differentiation. HaCat cells were cultured in the presence or absence of hydroxymethionine-Ca for 14 days. The incubation duration was rather long in order to enable the keratinocytes to pursue differentiation up to a relatively late stage.
Quantification was conducted by image analysis after red oil staining of the lipid vesicles.

[3] = concentration 0.02% (mix: each)
[4] = concentration 0.05% (mix: each)

SMILES: NCCCS(=O)(=O)O [3-aminopropanesulfonic acid]
Filaggrin synthesis, Change (%) vs control (filaggrin; Table 3, 14 days, 0.02%): 0.8 X
Filaggrin synthesis, Change (%) vs control (filaggrin; Table 3, 14 days, 0.05%): X 1
Filaggrin synthesis, Change (%) vs control (filaggrin; Table 3, 14 days, 0.06%): 0.8 X
Filaggrin synthesis, Fluorescence (filaggrin; 0.02%): 1.2 +/− 0.6 arbitrary unit
Filaggrin synthesis, Fluorescence (filaggrin; 0.05%): 1.5 +/− 0.7 arbitrary unit
Filaggrin synthesis, Fluorescence (filaggrin; 0.06%): 1.2 +/− 0.6 arbitrary unit
effect on cell proliferation ([1]; 0.02% and 0.05%): no stimulant effect
Keratinocyte proliferation vs. control cell proliferation [1, 3]: 0%
Keratinocyte proliferation vs. control cell proliferation [1, 4]: 0%
differentiating effect, keratin 10 (keratin K10): devoid of differentiating effect
Synthesis of keratin 10, Fluorescence (keratin K10; 0.02%): 0.1 +/− 0.05 arbitrary unit
Synthesis of keratin 10, Fluorescence (keratin K10; 0.05%): <0.1 arbitrary unit
Synthesis of keratin 10, Fluorescence (keratin K10; 0.06%): 0.1 +/− 0.06 arbitrary unit
Variation of the number of cells with regard to the control after a hyperosmotic stress (MTT) (Keratinocytes; T0): +8%
Variation of the number of cells with regard to the control after a hyperosmotic stress (MTT) (Keratinocytes; T24 h): +180%
Variation of the number of cells with regard to the control after a hyperosmotic stress (MTT) (Keratinocytes; T48 h): +247%

Transglutaminase mRNA, Change (%) vs control (transglutaminase; 0.015%): +322%*
Transglutaminase mRNA, Change (%) vs control (transglutaminase; 0.03%): +661%*
Transglutaminase mRNA, Change (%) vs control (transglutaminase; 0.06%): +814%*
increase in mRNA coding for transglutaminase (transglutaminase; dose-dependent): 8 fold
SMILES: CSCCC(O)C(=O)O (centres unmarked) [Hydroxymethionine-Ca (AHMC), 2-hydroxy-4-(thiomethyl)butanoic acid]
Filaggrin synthesis, Change (%) vs control (filaggrin; Table 2, 14 days, 0.015%): +379%
Filaggrin synthesis, Change (%) vs control (filaggrin; Table 2, 14 days, 0.03%): +1072%
Filaggrin synthesis, Change (%) vs control (filaggrin; Table 2, 14 days, 0.06%): +943%
Filaggrin synthesis, Fluorescence, result per 106 cells (filaggrin; 0.015%): 1.9 ± 1.4 arbitrary unit
Filaggrin synthesis, Fluorescence, result per 106 cells (filaggrin; 0.03%): 4.6 ± 3.1 arbitrary unit
Filaggrin synthesis, Fluorescence, result per 106 cells (filaggrin; 0.06%): 4.1 ± 3.5 arbitrary unit
Filaggrin synthesis, Change (%) vs control (filaggrin; Table 3, 14 days, 0.02%): 3.3 X
Filaggrin synthesis, Change (%) vs control (filaggrin; Table 3, 14 days, 0.05%): 3.4 X
Filaggrin synthesis, Change (%) vs control (filaggrin; Table 3, 14 days, 0.06%): 2.7 X
Filaggrin synthesis, Fluorescence (filaggrin; 0.02%): 5.0 arbitrary unit
Filaggrin synthesis, Fluorescence (filaggrin; 0.05%): 5.2 arbitrary unit
Filaggrin synthesis, Fluorescence (filaggrin; 0.06%): 4.2 arbitrary unit
increase in filaggrin synthesis on the control value (filaggrin; concentration equivalent to 0.06%): ≤ 10 fold
increase in filaggrin synthesis on the control value (filaggrin; lowest concentration): 3.7 fold
production of filaggrine (filaggrin; used concentrations, 14 days after contact): strongly stimulates
Keratinocyte proliferation vs. control cell proliferation [1, 3]: 223%
Keratinocyte proliferation vs. control cell proliferation [1, 4]: 170%
Synthesis of keratin 10, Change vs control (keratin K10; 0.02%): X 45
Synthesis of keratin 10, Change vs control (keratin K10; 0.05%): X 57
Synthesis of keratin 10, Change vs control (keratin K10; 0.06%): X 44
Synthesis of keratin 10, Fluorescence (keratin K10; 0.02%): 4.0 arbitrary unit
Synthesis of keratin 10, Fluorescence (keratin K10; 0.05%): 5.1 +/− 1.3 arbitrary unit
Synthesis of keratin 10, Fluorescence (keratin K10; 0.06%): 3.9 +/− 1.7 arbitrary unit
Variation of the number of cells with regard to the control after a hyperosmotic stress (MTT) (Keratinocytes; T0): +54%
Variation of the number of cells with regard to the control after a hyperosmotic stress (MTT) (Keratinocytes; T24 h): +108%
Variation of the number of cells with regard to the control after a hyperosmotic stress (MTT) (Keratinocytes; T48 h): +112%
properties shown by the gene expression study [2]: proliferative, pro-differentiation and proteinogenic properties but also DNA repairing properties
activation of the gene HK2 involved in the proliferation ([2]; 5×10E-3% or 5×10E-2%): marked activation
activation of the gene endothelin 1 involved in the cellular differentiation ([2]; 5×10E-3% or 5×10E-2%): marked activation
activity of the gene CACNA1C (subunit alpha 1 of the voltage-dependent calcium channel) ([2]; 5×10E-3% or 5×10E-2%): increased activity
activity of the gene for RYR (ryanodine receptor) ([2]; 5×10E-3% or 5×10E-2%): increased activity
differentiation activities (ornithine decarboxylase, keratins, involucrin, intermediate filaments, claudin genes) ([2]; 5×10E-3% or 5×10E-2%): strongly expressed
gene TGD (thymidine DNA glycolase) ([2]; 5×10E-3% or 5×10E-2%): activated
Transglutaminase mRNA, Ct, result per 106 cells (transglutaminase; 0.015%): 23.7 ± 0.3 amplification unit
Transglutaminase mRNA, Ct, result per 106 cells (transglutaminase; 0.03%): 22.9 ± 0.1 amplification unit
Transglutaminase mRNA, Ct, result per 106 cells (transglutaminase; 0.06%): 22.5 ± 0.3 amplification unit
Formation of lipid vesicles, Change (%) vs control (HaCat cells; 0.015%): +77%
Formation of lipid vesicles, Change (%) vs control (HaCat cells; 0.03%): +58%
Formation of lipid vesicles, Change (%) vs control (HaCat cells; 0.06%): +66%
Formation of lipid vesicles, Red-oil staining, result per 106 cells (HaCat cells; 0.015%): 2.8 ± 0.3 arbitrary unit
Formation of lipid vesicles, Red-oil staining, result per 106 cells (HaCat cells; 0.03%): 2.5 ± 0.7 arbitrary unit
Formation of lipid vesicles, Red-oil staining, result per 106 cells (HaCat cells; 0.06%): 2.6 ± 0.6 arbitrary unit
